Results as given in US20230085307A1, “PYRIDAZINONE COMPOUND AND HERBICIDE” (NISSAN CHEMICAL CORPORATION, priority 2019, published 2023).

What was measured:
barnyard grass [1] = assay: Test Example 4: herbicidal effect by soil treatment (Table 19, symbol H); assay type: in vivo, barnyard grass (Echinochloa crus-galli); settings: amount of applied herbicide 320 g/ha
Procedure, shortened: (§1)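 Herbicidal effect was rated 3 weeks after treatment, using the scoring criteria of an earlier test. The compound, formulated as an emulsion and diluted in water to a set herbicide amount, had been sprayed uniformly on soil over freshly sown seeds. Growth took place in a greenhouse at 25° C. to 30° C.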

Italian ryegrass [2] = assay: Test Example 5: herbicidal effect by foliage application, plastic box (Table 20, symbol K); assay type: in vivo, Italian ryegrass (Lolium multiflorum); settings: foliage application, 320 g/ha, evaluated three weeks after application
Procedure, shortened: (§2)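 Foliar spray test: emulsion formulation diluted in water to a set application rate, sprayed onto 14-day-old plants raised in diluvial soil at 25° C to 30° C under glass. Both herbicidal effect and crop effect rated visually three weeks later.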

velvetleaf [3] = assay: Test Example 5: herbicidal effect by foliage application, plastic box (Table 20, symbol M); assay type: in vivo, velvetleaf (Abutilon theophrasti); settings: foliage application, 320 g/ha, evaluated three weeks after application
Procedure, shortened: as §2

velvetleaf [4] = assay: Test Example 4: herbicidal effect by soil treatment (Table 19, symbol M); assay type: in vivo, velvetleaf (Abutilon theophrasti); settings: amount of applied herbicide 320 g/ha
Procedure, shortened: as §1

blackgrass [5] = assay: Test Example 5: herbicidal effect by foliage application, plastic box (Table 20, symbol J); assay type: in vivo, blackgrass (Alopecurus myosuroides); settings: foliage application, 320 g/ha, evaluated three weeks after application
Procedure, shortened: as §2

wild oat [6] = assay: Test Example 4: herbicidal effect by soil treatment (Table 19, symbol I); assay type: in vivo, wild oat (Avena fatua); settings: amount of applied herbicide 320 g/ha
Procedure, shortened: as §1

lambsquarters [7] = assay: Test Example 4: herbicidal effect by soil treatment (Table 19, symbol O); assay type: in vivo, lambsquarters (Chenopodium album); settings: amount of applied herbicide 320 g/ha
Procedure, shortened: as §1

barnyard grass [8] = assay: Test Example 3: herbicidal effect by foliage application, Wagner pot (Table 18, symbol H); assay type: in vivo, barnyard grass (Echinochloa crus-galli); settings: amount of applied herbicide 320 g/ha
Procedure, shortened: (§3)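 Plants were sown in alluvial soil held under 0.1–0.5 cm standing water and grown 14 days in a greenhouse at 25–30 °C. An emulsifiable formulation, water-diluted to the set dose, was then sprayed onto the foliage, and effects were scored three weeks later using previously defined criteria.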

late watergrass = assay: Test Example 1: herbicidal activity, application before weed generation under submerged conditions (Table 16, symbol A); assay type: in vivo, late watergrass (Echinochloa oryzicola); settings: 320 g/ha applied herbicide
Procedure, shortened: (§4)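 Submerged Wagner pots (alluvial soil, 4 cm water) sown with weed seeds and planted with 2.5-leaf rice seedlings; emulsifiable concentrate diluted in water applied to water surface on sowing day. Held in greenhouse at 25-30 °C; injury scored 0-5 by herbicidal rate after three weeks.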

chickweed [9] = assay: Test Example 4: herbicidal effect by soil treatment (Table 19, symbol P); assay type: in vivo, common chickweed (Stellaria media); settings: amount of applied herbicide 320 g/ha
Procedure, shortened: as §1

redroot pigweed [10] = assay: Test Example 4: herbicidal effect by soil treatment (Table 19, symbol N); assay type: in vivo, redroot pigweed (Amaranthus retroflexus); settings: amount of applied herbicide 320 g/ha
Procedure, shortened: as §1

persian speedwell [11] = assay: Test Example 5: herbicidal effect by foliage application, plastic box (Table 20, symbol R); assay type: in vivo, Persian speedwell (Veronica persica); settings: foliage application, 320 g/ha, evaluated three weeks after application
Procedure, shortened: as §2

green foxtail [12] = assay: Test Example 5: herbicidal effect by foliage application, plastic box (Table 20, symbol G); assay type: in vivo, green foxtail (Setaria viridis); settings: foliage application, 320 g/ha, evaluated three weeks after application
Procedure, shortened: as §2

rice flat sedge = assay: Test Example 3: herbicidal effect by foliage application, Wagner pot (Table 18, symbol E); assay type: in vivo, rice flat sedge (Cyperus iria); settings: amount of applied herbicide 320 g/ha
Procedure, shortened: as §3

barnyard grass [13] = assay: Test Example 5: herbicidal effect by foliage application, plastic box (Table 20, symbol H); assay type: in vivo, barnyard grass (Echinochloa crus-galli); settings: foliage application, 320 g/ha, evaluated three weeks after application
Procedure, shortened: as §2

chickweed [14] = assay: Test Example 5: herbicidal effect by foliage application, plastic box (Table 20, symbol P); assay type: in vivo, common chickweed (Stellaria media); settings: foliage application, 320 g/ha, evaluated three weeks after application
Procedure, shortened: as §2

windgrass [15] = assay: Test Example 4: herbicidal effect by soil treatment (Table 19, symbol L); assay type: in vivo, windgrass (Apera spica-venti); settings: amount of applied herbicide 320 g/ha
Procedure, shortened: as §1

false cleavers = assay: Test Example 5: herbicidal effect by foliage application, plastic box (Table 20, symbol Q); assay type: in vivo, false cleavers (Galium spurium); settings: foliage application, 320 g/ha, evaluated three weeks after application
Procedure, shortened: as §2

southern crabgrass [16] = assay: Test Example 5: herbicidal effect by foliage application, plastic box (Table 20, symbol F); assay type: in vivo, southern crabgrass (Digitaria ciliaris); settings: foliage application, 320 g/ha, evaluated three weeks after application
Procedure, shortened: as §2

wild oat [17] = assay: Test Example 5: herbicidal effect by foliage application, plastic box (Table 20, symbol I); assay type: in vivo, wild oat (Avena fatua); settings: foliage application, 320 g/ha, evaluated three weeks after application
Procedure, shortened: as §2

redroot pigweed [18] = assay: Test Example 5: herbicidal effect by foliage application, plastic box (Table 20, symbol N); assay type: in vivo, redroot pigweed (Amaranthus retroflexus); settings: foliage application, 320 g/ha, evaluated three weeks after application
Procedure, shortened: as §2

blackgrass [19] = assay: Test Example 4: herbicidal effect by soil treatment (Table 19, symbol J); assay type: in vivo, blackgrass (Alopecurus myosuroides); settings: amount of applied herbicide 320 g/ha
Procedure, shortened: as §1

Chinese sprangletop = assay: Test Example 3: herbicidal effect by foliage application, Wagner pot (Table 18, symbol D); assay type: in vivo, chinese sprangletop (Leptochloa chinensis); settings: amount of applied herbicide 320 g/ha
Procedure, shortened: as §3

green foxtail [20] = assay: Test Example 4: herbicidal effect by soil treatment (Table 19, symbol G); assay type: in vivo, green foxtail (Setaria viridis); settings: amount of applied herbicide 320 g/ha
Procedure, shortened: as §1

southern crabgrass [21] = assay: Test Example 4: herbicidal effect by soil treatment (Table 19, symbol F); assay type: in vivo, southern crabgrass (Digitaria ciliaris); settings: amount of applied herbicide 320 g/ha
Procedure, shortened: as §1

lambsquarters [22] = assay: Test Example 5: herbicidal effect by foliage application, plastic box (Table 20, symbol O); assay type: in vivo, lambsquarters (Chenopodium album); settings: foliage application, 320 g/ha, evaluated three weeks after application
Procedure, shortened: as §2

windgrass [23] = assay: Test Example 5: herbicidal effect by foliage application, plastic box (Table 20, symbol L); assay type: in vivo, windgrass (Apera spica-venti); settings: foliage application, 320 g/ha, evaluated three weeks after application
Procedure, shortened: as §2

oval-leafed pondweed = assay: Test Example 1: herbicidal activity, application before weed generation under submerged conditions (Table 16, symbol C); assay type: in vivo, oval-leafed pondweed (Monochoria vaginalis); settings: 320 g/ha applied herbicide
Procedure, shortened: as §4

persian speedwell [24] = assay: Test Example 4: herbicidal effect by soil treatment (Table 19, symbol R); assay type: in vivo, Persian speedwell (Veronica persica); settings: amount of applied herbicide 320 g/ha
Procedure, shortened: as §1

Japanese bulrush = assay: Test Example 1: herbicidal activity, application before weed generation under submerged conditions (Table 16, symbol B); assay type: in vivo, Japanese bulrush (Schoenoplectus juncoides); settings: 320 g/ha applied herbicide
Procedure, shortened: as §4

Italian ryegrass [25] = assay: Test Example 4: herbicidal effect by soil treatment (Table 19, symbol K); assay type: in vivo, Italian ryegrass (Lolium multiflorum); settings: amount of applied herbicide 320 g/ha
Procedure, shortened: as §1

SMILES: Cc1nn(C)c(=O)c(-c2c(-c3ccc4c(c3)OCO4)sc3ccc(Cl)cc23)c1O [2-125]
- H: barnyard grass, herbicidal effect rating (barnyard grass [1]): 0 (Herbicidal rate of 5% or less (almost no effect))
- herbicidal effect on K: Italian ryegrass (Italian ryegrass [2]): 0 (Herbicidal rate of 5% or less (almost no effect))
- herbicidal effect on M: velvetleaf (velvetleaf [3]): 4 (Herbicidal rate of 70% or more and less than 90%)
- M: velvetleaf, herbicidal effect rating (velvetleaf [4]): 3 (Herbicidal rate of 40% or more and less than 70%)
- herbicidal effect on J: blackgrass (blackgrass [5]): 0 (Herbicidal rate of 5% or less (almost no effect))
- I: wild oat, herbicidal effect rating (wild oat [6]): 0 (Herbicidal rate of 5% or less (almost no effect))
- O: lambsquarters, herbicidal effect rating (lambsquarters [7]): 4 (Herbicidal rate of 70% or more and less than 90%)
- herbicidal effect on H: barnyard grass (barnyard grass [8]): 4 (Herbicidal rate of 70% or more and less than 90%)
- Herbicidal effect on A: late watergrass (grade 0-5) (late watergrass): 0 (Herbicidal rate of 5% or less (almost no effect))
- P: chickweed, herbicidal effect rating (chickweed [9]): 5 (Herbicidal rate of 90% or more (almost completely withered))
- N: redroot pigweed, herbicidal effect rating (redroot pigweed [10]): 5 (Herbicidal rate of 90% or more (almost completely withered))
- herbicidal effect on R: persian speedwell (persian speedwell [11]): 5 (Herbicidal rate of 90% or more (almost completely withered))
- herbicidal effect on G: green foxtail (green foxtail [12]): 0 (Herbicidal rate of 5% or less (almost no effect))
- herbicidal effect on E: rice flat sedge (rice flat sedge): 5 (Herbicidal rate of 90% or more (almost completely withered))
- herbicidal effect on H: barnyard grass (barnyard grass [13]): 2 (Herbicidal rate of 20% or more and less than 40%)
- herbicidal effect on P: chickweed (chickweed [14]): 5 (Herbicidal rate of 90% or more (almost completely withered))
- L: windgrass, herbicidal effect rating (windgrass [15]): 0 (Herbicidal rate of 5% or less (almost no effect))
- herbicidal effect on Q: false cleavers (false cleavers): 3 (Herbicidal rate of 40% or more and less than 70%)
- herbicidal effect on F: southern crabgrass (southern crabgrass [16]): 0 (Herbicidal rate of 5% or less (almost no effect))
- herbicidal effect on I: wild oat (wild oat [17]): 0 (Herbicidal rate of 5% or less (almost no effect))
- herbicidal effect on N: redroot pigweed (redroot pigweed [18]): 3 (Herbicidal rate of 40% or more and less than 70%)
- J: blackgrass, herbicidal effect rating (blackgrass [19]): 0 (Herbicidal rate of 5% or less (almost no effect))
- herbicidal effect on D: Chinese sprangletop (Chinese sprangletop): 3 (Herbicidal rate of 40% or more and less than 70%)
- G: green foxtail, herbicidal effect rating (green foxtail [20]): 0 (Herbicidal rate of 5% or less (almost no effect))
- F: southern crabgrass, herbicidal effect rating (southern crabgrass [21]): 0 (Herbicidal rate of 5% or less (almost no effect))
- herbicidal effect on O: lambsquarters (lambsquarters [22]): 4 (Herbicidal rate of 70% or more and less than 90%)
- herbicidal effect on L: windgrass (windgrass [23]): 0 (Herbicidal rate of 5% or less (almost no effect))
- Herbicidal effect on C: oval-leafed pondweed (grade 0-5) (oval-leafed pondweed): 0 (Herbicidal rate of 5% or less (almost no effect))
- R: persian speedwell, herbicidal effect rating (persian speedwell [24]): 5 (Herbicidal rate of 90% or more (almost completely withered))
- Herbicidal effect on B: Japanese bulrush (grade 0-5) (Japanese bulrush): 2 (Herbicidal rate of 20% or more and less than 40%)
- K: Italian ryegrass, herbicidal effect rating (Italian ryegrass [25]): 0 (Herbicidal rate of 5% or less (almost no effect))
